Eight compounds from US20130040952A1 (priority 2011, published 2013) can be followed below.

Series [1] deals with NP WT trimer (Influenza A virus, UniProt P15682). It counts as binding, influenza A virus (WSN).
Series [2] can be described thus: Cytotoxicity assay in MDCK cells (MTS). Particulars: dog; concentration needed to inhibit 50% growth of MDCK cells in 48 h. Type of series: cell-based. The procedure: In a 96-well plate, 1×10^4 MDCK cells were seeded per well and incubated for 24 h at 37° C. The MDCK cells were then incubated with compounds for 48 h at 35° C. The number of metabolically viable cells was determined by the MTS assay (Promega).

For series [3], the system named is WSN virus. The experiment in a line: microbe, parasite or virus in culture. Particulars: unidentified influenza virus, MDCK, 48 h, read-out: IC50 (μM), antiinfluenza.
Series [4] relates to rWSN virus (parental). The series is described as follows: microbe, parasite or virus in culture. It counts as cell-based. The settings on record: unidentified influenza virus, MDCK, 48 h, read-out: Anti-rWSN IC50 (μM), parental.
For series [5], the system named is RDRP activity of WSN virus. It counts as biochemical, Influenza virus A/WSN/33 (H1N1).

Where a SMILES comes first, the peptide text is derived from it. Bridges are numbered along the chain shown (N, C = ends).

Sequence of NP WT trimer (P15682 whole entry, looked up): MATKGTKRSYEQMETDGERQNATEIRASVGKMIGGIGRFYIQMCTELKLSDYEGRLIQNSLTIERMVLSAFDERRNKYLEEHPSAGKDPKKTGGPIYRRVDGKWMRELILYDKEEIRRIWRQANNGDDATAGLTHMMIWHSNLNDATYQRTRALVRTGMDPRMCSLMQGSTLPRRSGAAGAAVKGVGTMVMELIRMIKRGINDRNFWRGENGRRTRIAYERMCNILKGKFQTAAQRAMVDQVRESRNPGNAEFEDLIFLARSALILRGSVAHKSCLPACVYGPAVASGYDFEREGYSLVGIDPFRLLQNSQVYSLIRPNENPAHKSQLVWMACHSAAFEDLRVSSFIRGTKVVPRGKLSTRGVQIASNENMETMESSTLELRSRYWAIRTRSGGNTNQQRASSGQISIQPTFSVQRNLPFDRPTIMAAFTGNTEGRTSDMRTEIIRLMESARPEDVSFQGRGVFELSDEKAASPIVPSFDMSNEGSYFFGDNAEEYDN

With `CCCCCC(=O)NCC(=O)Nc1cc(Cl)ccc1Cl` [compound 3], in series [1], the “effect of compounds on NP WT trimer (AUC)” value (“effect of compounds” below) was “able to disrupt NP trimerization and induce formation of NP monomers”. The CC50 – broadly, the concentration at which the toxic effect on the cells reaches its halfway point – at 48 h in series [2] was greater than 100 µM. Also, the IC50 – broadly, the concentration needed to halve the response being measured – in series [3] worked out at 118 µM.

For the compound `Cc1onc(-c2ccccc2)c1C(=O)N1CCN(c2ccc([N+](=O)[O-])cc2Cl)CC1` [nucleozin, reference compound], in series [1], the “effect of compounds” value is reported as “caused aggregation of the NP trimer”.

For `O=C(NCCCN1CCOCC1)c1csc(Nc2ccc(Cl)c(Cl)c2)n1` [compound 1], the “effect of compounds” value in series [1] was “able to disrupt NP trimerization and induce formation of NP monomers”. In addition, the CC50 at 48 h in series [2] was 35.6 µM. Also, the IC50 in series [4] came to 1.7 µM; in series [3] it was 2.7 µM.

On to `CC(C)[C@@H]1NC(=O)[C@H](CO)NC(=O)[C@H](Cc2ccccc2)NC(=O)[C@H]([C@@H](C)O)NC(=O)[C@@H](N)CSSC[C@@H](C(=O)O)NC(=O)[C@H](CC(N)=O)NC(=O)[C@H](CCCNC(=N)N)NC(=O)[C@H](CCC(N)=O)NC1=O` [peptide 2], for which the “inhibition of viral transcription activity” value in series [5] is listed as “reduce the viral transcription activity”. The “effect of peptides on WT NP trimerization (AUC)” value (“effect of peptides” for short) in series [1] is given as “the effect was substantially enhanced”. The compound further had a CC50 at 48 h in series [2] greater than 2000 µM.

For the compound `CC(C)C[C@@H]1NC(=O)[C@H](CC(N)=O)NC(=O)[C@H](CCCNC(=N)N)NC(=O)[C@H](CCC(N)=O)NC(=O)[C@H](C(C)C)NC(=O)[C@H](CO)NC(=O)[C@H](Cc2ccccc2)NC(=O)[C@H]([C@@H](C)O)NC(=O)[C@@H]2CCCN2C(=O)[C@H](CCC(N)=O)NC(=O)[C@@H](N)CSSC[C@@H](C(=O)O)NC1=O` [peptide 3] (H-CQPTFSVQRNLC-OH; disulfide 1-12), the “inhibition of viral transcription activity” value in series [5] is “reduce the viral transcription activity”. In series [1], the “effect of peptides” value was “showed a slightly greater effect”. This compound had a CC50 at 48 h in series [2] greater than 2000 µM.

TFDSVQRN [peptide 1]: in series [1], the “effect of peptides” value is recorded as “disrupted WT NP trimerization only slightly”.

With `Cc1cccc(CSc2nc(=O)n(CCCO)c3c2CCC3)c1` [compound 4], the “effect of compounds” value in series [1] is “able to disrupt NP trimerization and induce formation of NP monomers”. The CC50 at 48 h in series [2] was greater than 100 µM. Moreover, the IC50 in series [3] was 39.7 µM.

Consider `CCCCCCCCC(=O)NCC(=O)Nc1cccc(F)c1` [compound 2], for which the “effect of compounds” value in series [1] is “able to disrupt NP trimerization and induce formation of NP monomers”. The compound further had a CC50 at 48 h in series [2] greater than 100 µM. In addition, the IC50 in series [3] was determined as 37.5 µM.
